Reference: patent publication US20120029177A1, “HETEROCYCLE-AMINO ACID DERIVATIVES FOR TARGETING CANCER TISSUE AND RADIOACTIVE OR NON-RADIOACTIVE LABELED COMPOUNDS THEREOF” (SNU R&DB FOUNDATION, priority 2009, published 2012)

What was measured:
[1] = test system: SNU-C4 xenografted nude mice; test: PET imaging of tumor xenografted mice; type: in vivo, mouse; conditions: PET at 1 and 2 hr post-injection, FIG. 2
Experimental: Human colon cancer cell line SNU-C4 was cultured in RPMI1640 media containing 10% fetal bovine serum and harvested using trypsin. The cells were washed using 10 mL PBS and centrifugation at 3,000 rpm. Each nude mouse was injected with 2×10^5 cells/0.1 mL on the right shoulder subcutaneously. On 14 days post-injection, each 10 μCi/0.1 mL of ^68Ga labeled agent was injected into the xenografted mice through the tail vein. The injected mice were anesthetized using 2% isoflurane, PET images were obtained at 1 and 2 hr post-injection using rodent R4, microPET scanner (Concorde Microsystem Inc.). The images were analyzed using ASIPro software (Concorde Microsystem Inc.).

[2] = test system: SNU-C4 xenografted nude mice; test: Biodistribution study in SNU-C4 xenografted nude mice after intravenous injection; type: in vivo, mouse; conditions: for % ID/g Tumor: SNU-C4 tumor
In short: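 Nude mice bearing subcutaneous SNU-C4 xenografts (2×10^5 cells, right shoulder) received 10 μCi ^68Ga-labeled agent i.v. via tail vein on day 13. Tumour, blood and organs were weighed and counted at 10 min, 30 min, 1 h and 2 h; values are % ID/g.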

CT-26 cells = test: In vitro cell uptake, CT-26 (FIG. 1b); type: cell-based, mouse; conditions: controls ^68Ga-DO2A, ^68Ga-DO3A
Experimental: Human colon cancer cell line SNU-C4 was purchased from Korea Cell Line Bank (KCLB). Human thyroid cell line ARO, human liver cancer cell line Hep3B, human glioma cell line U251MG and U87MG, and mouse colon cell line CT-26 were purchased from American Type Culture Collection (ATCC). SNU-C4 and ARO were culture in RPMI1640 (Welgene Inc., Korea) and Hep3B, U251 MG, U87MG, and CT-26 were cultured in DMEM (Welgene Inc., Korea). Penicillin, streptomycin and amphotericin B (10,000 IU/mL, 10 mg/mL and 25 μg/mL, respectively, Mediatech Inc., U.S.A.) 1% mixture and fetal bovine serum (Welgene Inc., Korea) were added to all cell culture media. Cell culture was done in 37° C. incubator with supply of 5% CO2.
About 1.8×10^5 cells/mL CT-26 and 1.2×10^5 cells/mL U87MG were put into 24-well incubation plate and incubated for 20 hr. When the each well was about 80% confluent with cells, 296 kBq/0.5 mL of ^68Ga labeled agent was added to each well. Culture supernatants were discarded at each time point and cells were washed with ice-cooled Hank's balanced salt solution (HBSS, pH7.3, Gibco, U.S.A.) 2 times. The cells were dissolved by 0.5% sodium dodecylsulfate (SDS), recovered and counted using a gamma counter (Packard, Can berra Co., U.S.A.). Total protein amount in each sample was measured by bicinchonic acid (BCA, Pierce, U.S.A.) method.

[3] = 10 min after intravenous injection
[4] = 30 min after intravenous injection
[5] = 1 hr after intravenous injection
[6] = 2 hr after intravenous injection

NC(CN1CCN(CC(=O)[O-])CCNCCN(CC(=O)[O-])CC1)C(=O)[O-].[68Ga+3] (centres unmarked) [^68Ga-DO2A-ala] was tested, and the “tumor uptake in PET images” value [1] was “high tumor uptakes”, the “% ID/g Tumor” value [2, 3] was 2.88 ± 0.39 % ID/g and the “% ID/g Tumor” value [2, 4] was 2.30 ± 0.53 % ID/g. The “% ID/g Tumor” value [2, 5] was 1.05 ± 0.33 % ID/g, the “% ID/g Tumor” value [2, 6] was 1.08 ± 0.18 % ID/g and the “tumor uptake compared with the control heterocyclic compound (in words)” value ([2]; SNU-C4 xenografted nude mice, 10 min to 2 hr) was “always higher than that of ^68Ga-DO2A”. The “% ID/g Blood” value [2, 3] was 7.75 ± 0.97 % ID/g, the “% ID/g Blood” value [2, 4] was 5.26 ± 1.36 % ID/g and the “% ID/g Blood” value [2, 5] was 3.12 ± 0.89 % ID/g. The “% ID/g Blood” value [2, 6] was 1.94 ± 0.24 % ID/g, the “% ID/g Bone” value [2, 3] was 2.60 ± 0.56 % ID/g and the “% ID/g Bone” value [2, 4] was 2.22 ± 0.49 % ID/g. The “% ID/g Bone” value [2, 5] was 1.57 ± 0.52 % ID/g, the “% ID/g Bone” value [2, 6] was 1.06 ± 0.52 % ID/g and the “% ID/g Heart” value [2, 3] was 1.98 ± 0.06 % ID/g. For the same molecule, the “% ID/g Heart” value [2, 4] was 1.19 ± 0.34 % ID/g, the “% ID/g Heart” value [2, 5] was 0.79 ± 0.34 % ID/g and the “% ID/g Heart” value [2, 6] was 0.45 ± 0.10 % ID/g. The “% ID/g Intestine” value [2, 3] was 1.91 ± 0.33 % ID/g, the “% ID/g Intestine” value [2, 4] was 1.40 ± 0.38 % ID/g and the “% ID/g Intestine” value [2, 5] was 3.91 ± 2.96 % ID/g. The “% ID/g Intestine” value [2, 6] was 0.77 ± 0.03 % ID/g, the “% ID/g Kidney” value [2, 3] was 13.33 ± 4.30 % ID/g and the “% ID/g Kidney” value [2, 4] was 14.50 ± 8.89 % ID/g. The “% ID/g Kidney” value [2, 5] was 4.71 ± 2.26 % ID/g, the “% ID/g Kidney” value [2, 6] was 3.99 ± 0.54 % ID/g and the “% ID/g Liver” value [2, 3] was 1.74 ± 0.25 % ID/g. The “% ID/g Liver” value [2, 4] was 1.46 ± 0.27 % ID/g, the “% ID/g Liver” value [2, 5] was 1.39 ± 0.47 % ID/g and the “% ID/g Liver” value [2, 6] was 0.99 ± 0.04 % ID/g. The “% ID/g Lung” value [2, 3] was 8.45 ± 0.98 % ID/g, the “% ID/g Lung” value [2, 4] was 8.23 ± 2.41 % ID/g and the “% ID/g Lung” value [2, 5] was 4.21 ± 1.47 % ID/g. The “% ID/g Lung” value [2, 6] was 3.23 ± 0.49 % ID/g, the “% ID/g Muscle” value [2, 3] was 2.08 ± 0.43 % ID/g and the “% ID/g Muscle” value [2, 4] was 1.81 ± 0.77 % ID/g. For the same molecule, the “% ID/g Muscle” value [2, 5] was 0.87 ± 0.40 % ID/g, the “% ID/g Muscle” value [2, 6] was 0.49 ± 0.08 % ID/g and the “% ID/g Spleen” value [2, 3] was 1.61 ± 0.26 % ID/g. For the same molecule, the “% ID/g Spleen” value [2, 4] was 1.30 ± 0.29 % ID/g, the “% ID/g Spleen” value [2, 5] was 1.24 ± 0.34 % ID/g and the “% ID/g Spleen” value [2, 6] was 0.82 ± 0.09 % ID/g. For the same molecule, the “% ID/g Stomach” value [2, 3] was 2.48 ± 0.62 % ID/g, the “% ID/g Stomach” value [2, 4] was 1.49 ± 0.62 % ID/g and the “% ID/g Stomach” value [2, 5] was 12.82 ± 7.46 % ID/g. For the same molecule, the “% ID/g Stomach” value [2, 6] was 0.38 ± 0.05 % ID/g and the “tumor cell uptake versus control agents” value (CT-26 cells) was “significantly increase tumor cell uptakes”.
